This is an account of results in US11759520B1, “Theranostics for protein misfolding diseases” (UNM Rainforest Innovations, priority 2018, dated 2023).

In assay [1] the target is T1, Aβ40 fibrils (Homo sapiens, UniProt P05067).
T1 construct: mixed with Aβ40 fibrils (5 μM) incubated in Tris pH 8.0 (A) or PB pH 7.4 (B)
The assay can be described thus: Effect of oxidation on Aβ40 fibril morphology and secondary structure (TEM, CD). The assay is classed as biochemical. Conditions: irradiated with photosensitizer.

Assay [2] addresses Aβ40 monomers (Homo sapiens, UniProt P05067). In words: Photo-oxidation of Aβ40 monomers (DNPH dot blot, RP-HPLC, MS, amino acid analysis). It is filed as biochemical. Conditions: 4 hour irradiation. Here is the method:
To evaluate the potency of OPE to selectively photo-oxidize Aβ40 fibrils over the monomeric counterpart, the oxidation state of both Aβ40 fibrils and monomers were characterized and were compared to MB. The carbonyl content of the protein was monitored by DNPH dot blot, which increases as a result of histidine photooxidation.^20
DNPH dot blot was carried out on Aβ40 fibrils and monomers incubated in the dark or under irradiation between 0 to 6 hours (FIGS. 9A and 9B). […] Slightly higher carbonyl content in Aβ fibrils at time 0 h in the presence of MB could be due to short light exposure during sample preparation causing MB to photosensitize the oxidation of Aβ fibrils.
To confirm this observation, Aβ40 monomers were analyzed by reverse phase HPLC (RP-HPLC), mass spectrometry (MS), and amino acid analysis (FIGS. 10A and B), before and after irradiation in the presence of OPE1− and MB.

Assay [3] has as its target T1, Aβ40 fibrils. In words: Fluorescence sensing of Aβ40 fibrils over monomers (ADF, LOD). It is filed as binding. Conditions: 5 to 1 protein to sensor molar ratio. On the procedure:
Quantitative assessment of OPE sensor performance towards A1340 fibrils at a 5 to 1 protein to sensor molar ratio was analyzed by calculating an amyloid detector factor using the equation shown in FIG. 13, where F(dye-in-buffer), F(dye+fibrils) and F(dye+monomers) are the integrated emission intensities for sensor alone, sensor in the presence of fibrils, and sensor in the presence of monomers, respectively. Using this equation, positive ADF values indicate selective sensing of fibrils over monomers, while negative ADF values indicate selective sensing of monomers. ADF values close to zero indicate no selective sensing.

Assay [4] has as its target T1, Aβ40 fibrils. The assay is described as above. It is filed as binding.
For assay [5], the target named is T2, Aβ42 peptide (Homo sapiens, UniProt P05067).
T2 construct: in the presence of unincubated (oligomeric) and incubated (fibrillar) Aβ42 peptide (5 μM)
T2 sequence (P05067 672-713 limits assumed): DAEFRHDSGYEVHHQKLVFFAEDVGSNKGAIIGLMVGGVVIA
In words: Fluorescence spectra with unincubated (oligomeric) and incubated (fibrillar) Aβ42 peptide. The settings on record: ThT 20 μM, OPE 1 μM, Aβ42 5 μM. It is filed as binding.

Assay [6] relates to α-synuclein. The assay can be described thus: Excitation and emission spectra with α-synuclein isoforms. It is filed as binding. The settings on record: 6 days of incubation.
Where [7] appears, read: Aβ40 fibrils produced in pH 7.4 PB.
The mark [8] stands for this setting: Aβ40 fibrils produced in pH 8.0 Tris.

T1 sequence (P05067 672-711 limits assumed): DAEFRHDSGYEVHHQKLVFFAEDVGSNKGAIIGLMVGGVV
Sequence of Aβ40 monomers (P05067 672-711 limits assumed): as above

With `CN(C)c1ccc2nc3ccc(=[N+](C)C)cc-3sc2c1` [MB, methylene blue, reference compound], the “Aβ40 fibril morphology after irradiation (TEM)” value in assay [1] is “fibrils dissociated and broke into shorter structures”. In addition, in assay [2], the “changes of Aβ40 monomers after irradiation” value was “become more hydrophilic, present higher m/z ratio, and have a lower histidine content”.
For the molecule `Cc1ccc2c(c1)sc(-c1ccc(N(C)C)cc1)[n+]2C.[Cl-]` [ThT, thioflavin T, reference compound], the “ADF (Amyloid Detection Factor), Aβ40 in PB” value in assay [3] (setting [7]) was 0.23 +/− 0.03. In addition, the “ADF (Amyloid Detection Factor), Aβ40 in Tris” value in assay [3] (setting [8]) was 0.53 +/− 0.1. The “LOD (Limit of Detection), Aβ40 in PB” value in assay [4] (setting [7]) came to 0.69 ± 0.05 µM. In assay [4] (setting [8]), the “LOD (Limit of Detection), Aβ40 in Tris” value came out at 0.65 ± 0.05 µM. For the same molecule, in assay [5], the “fluorescence increase with fibrillar (incubated) Aβ42” value is reported as “large fluorescence increases” and the “fluorescence increase with oligomeric (unincubated, prefibrillar) Aβ42” value is “small fluorescence increases”. For the same molecule, the “detection of prefibrillar α-synuclein aggregates” value in assay [6] is “only able to detect A53T aggregates after 6 days of incubation”.
